{
  "source": "patent US20110190244A1",
  "about": "“METHOD OF TREATMENT OF EGFR INHIBITOR TOXICITY” (priority 2010, published 2011)",
  "key": {"[1]": {"biological_target": "T1, STS (Homo sapiens, UniProt P08842)", "T1 construct": "from tissue; host or cells: peripheral blood lymphocytes / mononuclear cells and breast tumour tissue of patients", "T1 sequence (P08842 22-583)": "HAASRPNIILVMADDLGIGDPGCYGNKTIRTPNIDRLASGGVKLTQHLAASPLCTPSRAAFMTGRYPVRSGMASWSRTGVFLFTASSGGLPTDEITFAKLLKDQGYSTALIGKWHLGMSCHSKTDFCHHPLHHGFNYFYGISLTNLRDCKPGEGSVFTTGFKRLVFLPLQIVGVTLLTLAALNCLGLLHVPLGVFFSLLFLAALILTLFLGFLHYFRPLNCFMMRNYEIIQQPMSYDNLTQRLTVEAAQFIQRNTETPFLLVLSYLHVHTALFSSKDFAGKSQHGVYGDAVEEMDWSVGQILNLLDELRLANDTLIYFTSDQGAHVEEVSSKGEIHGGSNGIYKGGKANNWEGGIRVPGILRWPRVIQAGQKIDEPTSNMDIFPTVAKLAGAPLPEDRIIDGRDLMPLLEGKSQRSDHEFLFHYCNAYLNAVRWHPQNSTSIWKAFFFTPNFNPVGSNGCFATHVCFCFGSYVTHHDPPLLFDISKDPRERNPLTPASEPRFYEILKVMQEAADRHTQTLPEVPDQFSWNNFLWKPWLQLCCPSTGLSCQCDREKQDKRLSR", "details": "cited from earlier work"}, "[2]": {"details": "cited from earlier work; for no observed adverse effect level (NOAEL): rats, repeated oral dose"}, "[3]": {"biological_target": "T1, STS", "details": "40 mg dose; cited from earlier work"}, "[4]": {"details": "cited from earlier work"}, "[5]": {"tested_on": "carcinogen-induced mammary tumours", "details": "ovariectomized rats; cited from earlier work"}, "[6]": {"tested_on": "STS", "details": "cited from earlier work"}, "[7]": {"details": "cited from earlier work", "remark": "listed apart in the source"}, "[8]": {"details": "rats, single oral doses up to 1200 mg/kg; cited from earlier work"}, "[9]": {"tested_on": "isolated Purkinje fibres", "details": "only at a high concentration of 50 μM; cited from earlier work"}, "[10]": {"biological_target": "T2, hERG current (Homo sapiens, UniProt Q12809)", "T2 construct": "expressed in transfected cells; host or cells: HEK-293", "T2 sequence (Q12809 whole entry)": "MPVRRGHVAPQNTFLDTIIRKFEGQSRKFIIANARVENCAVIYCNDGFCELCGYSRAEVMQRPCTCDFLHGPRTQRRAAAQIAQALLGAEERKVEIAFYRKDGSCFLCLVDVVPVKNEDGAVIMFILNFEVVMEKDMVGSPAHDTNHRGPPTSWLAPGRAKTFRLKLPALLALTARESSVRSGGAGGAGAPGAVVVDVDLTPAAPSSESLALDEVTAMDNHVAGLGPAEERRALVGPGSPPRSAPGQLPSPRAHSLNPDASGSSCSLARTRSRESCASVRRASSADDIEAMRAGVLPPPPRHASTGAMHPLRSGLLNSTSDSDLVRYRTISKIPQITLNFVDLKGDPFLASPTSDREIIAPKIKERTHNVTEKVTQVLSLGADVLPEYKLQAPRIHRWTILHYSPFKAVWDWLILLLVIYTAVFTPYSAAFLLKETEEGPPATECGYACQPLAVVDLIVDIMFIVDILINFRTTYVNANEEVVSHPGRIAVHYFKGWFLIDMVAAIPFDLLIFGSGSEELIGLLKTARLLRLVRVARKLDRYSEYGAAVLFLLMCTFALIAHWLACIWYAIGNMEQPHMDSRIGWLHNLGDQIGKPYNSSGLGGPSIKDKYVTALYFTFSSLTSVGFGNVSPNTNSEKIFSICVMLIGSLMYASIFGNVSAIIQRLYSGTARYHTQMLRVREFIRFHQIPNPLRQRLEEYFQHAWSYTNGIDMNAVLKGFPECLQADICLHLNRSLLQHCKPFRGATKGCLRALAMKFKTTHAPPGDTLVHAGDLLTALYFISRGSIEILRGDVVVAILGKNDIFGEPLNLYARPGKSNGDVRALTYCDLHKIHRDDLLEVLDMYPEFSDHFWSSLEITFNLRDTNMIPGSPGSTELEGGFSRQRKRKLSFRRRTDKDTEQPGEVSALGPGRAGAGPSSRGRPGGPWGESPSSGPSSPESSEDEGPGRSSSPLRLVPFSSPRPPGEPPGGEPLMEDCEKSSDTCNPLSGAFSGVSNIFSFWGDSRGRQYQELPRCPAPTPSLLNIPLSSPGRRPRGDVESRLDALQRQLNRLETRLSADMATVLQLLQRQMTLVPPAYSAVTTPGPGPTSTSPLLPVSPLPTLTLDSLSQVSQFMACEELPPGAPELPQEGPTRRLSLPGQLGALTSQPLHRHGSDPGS", "details": "transfected HEK-293 cells, in vitro; read-out: hERG current inhibition IC50; cited from earlier work"}, "[11]": {"details": "female patients, 80 mg oral dose; cited from earlier work"}, "[12]": {"details": "dogs, cited from earlier work"}, "[13]": {"experiment": "Oral administration to radiotelemetry instrumented dogs for seven days", "details": "highest tested dose, versus 80 mg oral dose in patients"}, "[14]": {"details": "dogs, 50, 250 and 1000 mg/kg/day; cited from earlier work"}, "[15]": {"details": "rats, 2000 mg/kg oral; cited from earlier work"}, "[16]": {"details": "cited from earlier work", "remark": "listed apart in the source"}, "[17]": {"biological_target": "CYP2C19 (Homo sapiens, UniProt P33261)", "sequence (P33261 whole entry)": "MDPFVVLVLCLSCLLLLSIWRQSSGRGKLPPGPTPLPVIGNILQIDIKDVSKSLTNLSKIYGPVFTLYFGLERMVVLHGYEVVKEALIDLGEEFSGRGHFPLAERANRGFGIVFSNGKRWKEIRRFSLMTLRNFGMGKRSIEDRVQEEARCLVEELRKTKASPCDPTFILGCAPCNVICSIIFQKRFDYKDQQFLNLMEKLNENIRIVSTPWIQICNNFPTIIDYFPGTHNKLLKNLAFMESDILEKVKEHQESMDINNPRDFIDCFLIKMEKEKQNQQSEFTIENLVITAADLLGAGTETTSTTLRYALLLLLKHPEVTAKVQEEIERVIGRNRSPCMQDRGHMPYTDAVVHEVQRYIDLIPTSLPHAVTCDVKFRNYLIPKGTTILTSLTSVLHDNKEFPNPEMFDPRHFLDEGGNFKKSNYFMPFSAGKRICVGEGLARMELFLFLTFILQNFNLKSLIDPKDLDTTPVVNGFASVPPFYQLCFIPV", "details": "cited from earlier work"}, "[18]": {"experiment": "Repeated dose 1- and 6-month oral toxicity, rats", "format": "in vivo", "details": "versus 80 mg oral dose in patients", "text": "However, there was a slightly lower exposure over time in rats compared to dogs. […] In vitro and in vivo metabolic studies have shown a large number of metabolites with qualitatively similar in vitro profiles in rats, dogs and man. […] Based on the pharmacokinetic parameters of BN83495, it is not expected to have any significant interaction with EGFR inhibitor/s which are metabolised predominantly by CYP3A4 (Roche products—Tarceva Product Information)\nThe no observed adverse effect level (NOAEL) was 200 mg/kg/day for males and 50 mg/kg/day for females."}, "[19]": {"details": "cited from earlier work", "remark": "listed apart in the source"}, "[20]": {"details": "mice, 2000 mg/kg oral; cited from earlier work"}, "[21]": {"details": "rats, 25, 50, 100 and 200 mg/kg/day"}},
  "note": "Like-named read-outs stand apart in the source and are kept apart here.",
  "data": [
    {"molecule": "NS(=O)(=O)Oc1ccc2c3c(c(=O)oc2c1)CCCCC3", "note": "[BN83495, Sulphamic acid, 6,7,8,9,10,11-hexahydro-6-oxobenzo[b]cyclohepta[d]pyran-3-yl ester]", "values": [
      {"measurement": "patients with more than 90% STS inhibition in tumour tissue", "setting": "[1]; 5 mg dose", "value": "3 out of 4"},
      {"measurement": "patients with more than 90% STS inhibition in tumour tissue", "setting": "[1]; 20 mg dose, patients in whom it was measured", "value": "all 3"},
      {"measurement": "inhibition of STS activity in peripheral blood lymphocytes", "setting": "[1]; 24 hours after dosing on Day 5, both dose groups (5 mg, 20 mg daily)", "value": "more than 90%"},
      {"measurement": "plasma exposure versus dose", "setting": "[2]; 6-month repeat dose rat toxicology studies, Day 1", "value": "proportional to dose"},
      {"measurement": "bone findings (femur, tibia and sternum)", "setting": "[2]; [21]", "value": "partially reversible osteoid deposition at all treated dose-levels"},
      {"measurement": "liver findings", "setting": "[2]; [21]", "value": "reversible hepatocellular vacuolation in all treated groups"},
      {"measurement": "no observed adverse effect level (NOAEL)", "setting": "[2]; females", "value": 50, "unit": "mg/kg/day"},
      {"measurement": "no observed adverse effect level (NOAEL)", "setting": "[2]; males", "value": 200, "unit": "mg/kg/day"},
      {"measurement": "inhibition of STS in peripheral blood mononuclear cells", "setting": "[3]", "value": 95, "unit": "%"},
      {"measurement": "tolerability", "setting": "[4]; doses 1 mg up to 80 mg", "value": "well tolerated up to a dose of 40 mg"},
      {"measurement": "drug-related adverse events, Grade 3", "setting": "[4]; observed in 2 patients", "value": 4},
      {"measurement": "effect on ECG parameters", "setting": "[4]; preliminary review of ECG data", "value": "does not have an effect on ECG parameters"},
      {"measurement": "patients with stable disease for more than 6 months", "setting": "[4]; three higher dose groups", "value": "Four"},
      {"measurement": "dose limiting toxicity", "setting": "[4]; up to a dose of 40 mg", "value": "no dose limiting toxicity was observed"},
      {"measurement": "growth of mammary tumours stimulated by estrone sulphate (E1S)", "setting": "[5]", "value": "blocked the ability of estrone sulphate (E1S) to stimulate the growth"},
      {"measurement": "STS inhibition in rodents", "setting": "[6]; in vivo", "value": "potent STS inhibitor"},
      {"measurement": "best response: stable disease", "setting": "[7]; 14 patients, 5 mg or 20 mg", "value": 4, "unit": "patients"},
      {"measurement": "serum concentrations of oestradiol, androstenediol and testosterone", "setting": "[7]; Day 5 assessment", "value": "significant decreases"},
      {"measurement": "tolerability", "setting": "[7]; both tested doses (5 mg, 20 mg)", "value": "well tolerated"},
      {"measurement": "dose proportionality of Cmax, AUC and mean plasma clearance", "setting": "[7]; patients, 5 mg and 20 mg", "value": "non dose proportional pharmacokinetics"},
      {"measurement": "serum DHEA concentration", "setting": "[7]; patients, 5 mg or 20 mg", "value": "significant decreases"},
      {"measurement": "effect on behaviour or respiration", "setting": "[8]", "value": "no effect on behaviour or respiration"},
      {"measurement": "action potential duration (APD)", "setting": "[9]", "value": "increased action potential duration"},
      {"measurement": "IC50", "setting": "[10]", "value": 13, "unit": "µM"},
      {"measurement": "mean steady state plasma AUC", "setting": "[11]", "value": 1293, "unit": "ng·h/mL"},
      {"measurement": "mean steady state plasma Cmax", "setting": "[11]", "value": 159, "unit": "ng/mL"},
      {"measurement": "haemodynamic effects", "setting": "[12]; at both doses (150 and 400 mg/kg/day)", "value": "transient hypotension and reflex tachycardia"},
      {"measurement": "ECG changes", "setting": "[12]; oral 150 and 400 mg/kg/day for seven consecutive days", "value": "did not induce any clinically relevant ECG changes"},
      {"measurement": "mean maximum plasma exposure relative to mean steady state plasma AUC in female patients", "setting": "[13]", "value": 62, "unit": "fold"},
      {"measurement": "mean maximum plasma exposure relative to mean steady state plasma Cmax in female patients", "setting": "[13]", "value": 103, "unit": "fold"},
      {"measurement": "adrenal findings", "setting": "[14]", "value": "adrenal cortical cell hypertrophy was seen in all treated animal groups"},
      {"measurement": "kidney findings", "setting": "[14]", "value": "flattened tubular epithelium in one high dose animal/sex"},
      {"measurement": "liver findings", "setting": "[14]", "value": "hepatocellular vacuolation in both sexes at 50 mg/kg/day and in females at 250 and 1000 mg/kg/day"},
      {"measurement": "adverse effects in single dose oral toxicity study", "setting": "[15]", "value": "did not show any adverse effects"},
      {"measurement": "absorption", "setting": "[16]; non-clinical studies", "value": "rapid absorption"},
      {"measurement": "elimination of radioactivity", "setting": "[16]; preclinical models, by biotransformation", "value": "mainly via urine"},
      {"measurement": "distribution", "setting": "[16]; rats, primarily in blood and related organs, intestine, liver and kidneys", "value": "widely distributed"},
      {"measurement": "erythrocyte uptake", "setting": "[16]; uptake and retention related to carbonic anhydrase II enzyme", "value": "sequestered in erythrocytes"},
      {"measurement": "potential clinically significant induction/inhibition of a CYP450 isoenzyme", "setting": "[17]", "value": "inhibition of CYP2C19"},
      {"measurement": "exposure (AUC) in rats relative to mean AUC in female patients", "setting": "[18]; female rats", "value": 14, "unit": "fold"},
      {"measurement": "exposure (AUC) in rats relative to mean AUC in female patients", "setting": "[18]; male rats", "value": 31, "unit": "fold"},
      {"measurement": "protein binding", "setting": "[19]", "value": "highly protein bound"},
      {"measurement": "adverse effects in single dose oral toxicity study", "setting": "[20]", "value": "did not show any adverse effects"}
    ]},
    {"molecule": "CCCN1C(=O)CC2C3CCc4cc(OS(N)(=O)=O)ccc4C3CC[C@]2(C)C1=O", "note": "(some centres unmarked) [STX213]", "values": [
      {"measurement": "STS inhibition in rodents", "setting": "[6]; rodents", "value": "effectively inhibit STS activity"}
    ]}
  ]
}
